Experimental data reported in US4814485A, “4-aminobutanoic acid derivatives, process of preparation and use thereof” (Sanofi, priority 1985, dated 1989).

Molecular target: T1, human plasma renin (Homo sapiens, UniProt P00797)
T1 construct: human plasma renin activity; from tissue; host or cells: human plasma
T1 sequence (P00797 67-406): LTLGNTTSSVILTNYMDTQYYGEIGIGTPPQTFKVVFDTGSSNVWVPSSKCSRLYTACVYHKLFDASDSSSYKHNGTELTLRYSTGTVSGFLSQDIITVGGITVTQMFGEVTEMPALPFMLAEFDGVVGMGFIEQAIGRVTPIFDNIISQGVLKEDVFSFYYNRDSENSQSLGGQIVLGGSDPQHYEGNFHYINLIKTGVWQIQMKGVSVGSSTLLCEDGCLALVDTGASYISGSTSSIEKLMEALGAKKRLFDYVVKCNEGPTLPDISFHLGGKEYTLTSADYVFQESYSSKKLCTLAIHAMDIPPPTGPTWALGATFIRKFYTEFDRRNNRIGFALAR
Test: inhibitory action on the human plasma renin activity
Type: biochemical
Details: pH=6, method of European patent application No. 104,964, read-out: IC50 (dose of compound under study which causes 50% inhibition of the human plasma renin activity)
Description: The peptide so obtained was studied for determining its inhibitory action on the human plasma renin activity using the method described in European patent application No. 104,964.

IC50: 1000 nM
Substance: BOC-Phe-Nle-APHBA-Ala-Sta-OCH3 [SR 44205]
